# Assay results: ChEMBL document CHEMBL3351877, “Synthesis and identification of α-cyano bis(indolyl)chalcones as novel anticancer agents” (Bioorg Med Chem Lett, 2014)
# The source made the active and inactive calls. The calls are words filed in the database; no cut-off is given here.
# How the values were obtained:
# [1] = Cytotoxicity against human MIAPaCa2 cells assessed as reduction in cell viability after 24 hrs by WST8 assay; format: functional, cell-based; details: MIA PaCa-2, 24 h
# [2] = Cytotoxicity against human PC3 cells assessed as reduction in cell viability after 24 hrs by WST8 assay; format: functional, cell-based; details: PC-3, 24 h
# A549 [3] = test: Cytotoxicity against human A549 cells assessed as reduction in cell viability after 24 hrs by WST8 assay; format: functional, cell-based; details: A549, 24 h
# [4] = Cytotoxicity against human MIAPaCa2 cells assessed as reduction in cell viability after 48 hrs by WST8 assay; format: functional, cell-based; details: MIA PaCa-2, 48 h
# A549 [5] = test: Cytotoxicity against human A549 cells assessed as reduction in cell viability after 48 hrs by WST8 assay; format: functional, cell-based; details: A549, 48 h
# [6] = Cytotoxicity against human PC3 cells assessed as reduction in cell viability after 48 hrs by WST8 assay; format: functional, cell-based; details: PC-3, 48 h
# Tubulin (Sus scrofa) = Tubulin (Sus scrofa) (UniProt P02554+P02550); test: Induction of porcine brain tubulin polymerization at 5 uM incubated for 10 to 40 mins by spectrophotometry
# Chain of Tubulin (Sus scrofa) (P02550 whole entry, looked up): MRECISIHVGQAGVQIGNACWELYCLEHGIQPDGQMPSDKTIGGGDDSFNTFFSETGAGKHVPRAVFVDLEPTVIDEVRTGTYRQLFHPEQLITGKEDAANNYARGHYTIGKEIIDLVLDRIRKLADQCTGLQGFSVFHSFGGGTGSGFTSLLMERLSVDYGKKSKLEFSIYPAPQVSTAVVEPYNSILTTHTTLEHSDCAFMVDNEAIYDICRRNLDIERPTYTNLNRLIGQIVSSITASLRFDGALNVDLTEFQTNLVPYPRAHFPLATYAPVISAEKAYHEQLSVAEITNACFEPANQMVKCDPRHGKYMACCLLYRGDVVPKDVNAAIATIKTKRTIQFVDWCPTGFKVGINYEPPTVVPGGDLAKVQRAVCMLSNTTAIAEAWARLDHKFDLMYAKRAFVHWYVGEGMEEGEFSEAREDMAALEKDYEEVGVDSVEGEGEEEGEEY
# Chain of Tubulin (Sus scrofa) (P02554 whole entry, looked up): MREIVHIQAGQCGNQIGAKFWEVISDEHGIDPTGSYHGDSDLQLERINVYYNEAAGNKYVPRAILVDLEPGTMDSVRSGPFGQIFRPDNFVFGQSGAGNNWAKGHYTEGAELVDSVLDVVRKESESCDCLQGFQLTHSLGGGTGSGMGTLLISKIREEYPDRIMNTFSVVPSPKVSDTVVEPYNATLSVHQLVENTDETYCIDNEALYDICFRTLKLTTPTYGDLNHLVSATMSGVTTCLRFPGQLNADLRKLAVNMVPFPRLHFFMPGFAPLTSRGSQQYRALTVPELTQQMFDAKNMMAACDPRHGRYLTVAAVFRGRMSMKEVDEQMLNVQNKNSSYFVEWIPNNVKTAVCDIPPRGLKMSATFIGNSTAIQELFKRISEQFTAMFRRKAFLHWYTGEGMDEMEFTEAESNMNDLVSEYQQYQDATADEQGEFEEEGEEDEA
Activity (Tubulin (Sus scrofa)),Compound,IC50 [1] [µM],IC50 [2] [µM],IC50 (A549 [3]) [µM],IC50 [4] [µM],IC50 (A549 [5]) [µM],IC50 [6] [µM]
,N#C/C(=C\c1cn(Cc2ccc(Cl)cc2)c2ccccc12)C(=O)c1c[nH]c2cc(F)ccc12,> 50,> 50,> 50,16.6,> 50,> 50
Active,COc1ccc2c(/C=C(\C#N)C(=O)c3c[nH]c4cc(OC)ccc34)c[nH]c2c1,> 50,> 50,1.9,> 50,1.7,27
,N#C/C(=C\c1c[nH]c2ccccc12)C(=O)c1c[nH]c2ccccc12,17.9,> 50,16.1,36.8,22,> 50
,COc1ccc2[nH]cc(C(=O)/C(C#N)=C/c3c[nH]c4cc(F)ccc34)c2c1,> 50,> 50,> 50,> 50,> 50,> 50
,COc1ccc2c(C(=O)/C(C#N)=C/c3c[nH]c4cc(F)ccc34)c[nH]c2c1,> 50,36,2.4,> 50,0.8,22.5
,COc1ccc(Cn2cc(/C=C(\C#N)C(=O)c3c[nH]c4ccccc34)c3ccccc32)cc1,> 50,> 50,> 50,> 50,> 50,> 50
,COc1ccc2[nH]cc(/C=C(\C#N)C(=O)c3c[nH]c4ccccc34)c2c1,21.2,33.2,6.6,25.1,13.7,30.5
,COc1ccc(-c2[nH]c3ccccc3c2/C=C(\C#N)C(=O)c2c[nH]c3ccccc23)cc1,24,17.2,4.9,> 50,3,8.1
,COc1ccc2c(/C=C(\C#N)C(=O)c3c[nH]c4cc(F)ccc34)c[nH]c2c1,> 50,> 50,10.3,> 50,5.5,21.4
Active,COc1ccc(Cn2cc(/C=C(\C#N)C(=O)c3c[nH]c4cc(OC)ccc34)c3ccccc32)cc1,> 50,> 50,37.4,> 50,28.9,> 50
,CO[C@@]12[C@H](COC(N)=O)C3=C(C(=O)C(C)=C(N)C3=O)N1C[C@@H]1N[C@@H]12 [MITOMYCIN],,,0.45,,,
,COc1ccc2[nH]cc(/C=C(\C#N)C(=O)c3c[nH]c4ccc(OC)cc34)c2c1,28.5,> 50,> 50,> 50,24.5,> 50
,N#C/C(=C\c1cn(Cc2ccc(Cl)cc2)c2ccc(Br)cc12)C(=O)c1c[nH]c2ccccc12,37.7,47.1,14,> 50,24.9,36.5
,COc1ccc2c(C(=O)/C(C#N)=C/c3c[nH]c4ccc(OC)cc34)c[nH]c2c1,> 50,31.1,3.7,> 50,5.5,37.1
,N#C/C(=C\c1c[nH]c2cc(F)ccc12)C(=O)c1c[nH]c2ccccc12,23.5,> 50,17,31.6,22.7,> 50
,COc1ccc2c(/C=C(\C#N)C(=O)c3c[nH]c4ccccc34)c[nH]c2c1,27.5,33.3,9.6,> 50,5.8,12.5
,N#C/C(=C\c1c[nH]c2cc(F)ccc12)C(=O)c1c[nH]c2cc(F)ccc12,> 50,> 50,> 50,> 50,36.1,> 50
,COc1ccc2[nH]cc(/C=C(\C#N)C(=O)c3c[nH]c4cc(F)ccc34)c2c1,> 50,> 50,18,> 50,26.3,> 50
,COc1ccc2c(C(=O)/C(C#N)=C/c3cn(Cc4ccc(Cl)cc4)c4ccccc34)c[nH]c2c1,> 50,> 50,> 50,40.4,> 50,> 50
,N#C/C(=C\c1cn(Cc2ccc(Cl)cc2)c2ccccc12)C(=O)c1c[nH]c2ccccc12,> 50,> 50,> 50,> 50,> 50,> 50
,N#C/C(=C\c1c[nH]c2ccc(Br)cc12)C(=O)c1c[nH]c2ccc(Br)cc12,> 50,> 50,> 50,> 50,> 50,> 50
,COc1ccc(Cn2cc(/C=C(\C#N)C(=O)c3c[nH]c4cc(F)ccc34)c3ccccc32)cc1,> 50,> 50,> 50,29.4,36.3,> 50
Active,COc1ccc2c(C(=O)/C(C#N)=C/c3c[nH]c4ccccc34)c[nH]c2c1,13.5,> 50,6.4,> 50,7.5,12
,Cn1cc(/C=C(\C#N)C(=O)c2c[nH]c3ccccc23)c2ccccc21,31.6,> 50,27.9,> 50,> 50,> 50
